Target: T1, human IGF1R (Homo sapiens, UniProt P08069)
T1 construct: expressed in transfected cells; host or cells: R+ cells (R- mouse fibroblasts transfected with human IGF1R)
Test: Inhibition of insulin-like growth factor-1 receptor phosphorylation (immunofluorescence end point cell assay, R+ cells)
Type: cell-based
Conditions: R+ cells stimulated with 30 nM IGF1
Procedure: This immunofluorescence end point cell assay measures the ability of a test compound to reduce the measured levels of IGF phosphorylation after IGF1 stimulation in R^+ cells. R^+ cells are derived by transfection of R^− mouse fibroblast cells with human IGF1R. R^+ cells are routinely cultured in DMEM growth medium (Gibco BRL, 41966) containing 2 mM L-Glutamine (Invitrogen Code no. 25030-024) and 10% (v/v) foetal bovine serum (FBS)) in a 5% CO2 air incubator at 37° C.
To undertake the assay, the R^+ cells are seeded at 5×10^3 cells/well in DMEM plus 1% foetal calf serum, 1% L-glutamine in 96-well black Packard View plates (PerkinElmer 6005182) and incubated at 37° C. (+5% CO2) in a humidified incubator. […]
Following the compound treatment, the R^+ cells are stimulated with a final concentration of 30 nM IGF1 (Gropep IM001) for 20 minutes at 37° C. […] Additionally, in-house antibodies raised against phospho IGF1R were also used at a suitable titre determined for each batch. […]
The Green Fluorescent phospho IGF1R-associated signal in each well was measured using an Acumen Explorer HTS Reader (TTP Labtech Ltd., Cambridge). Phospho IGF1R-associated fluorescence emission can be detected at 530 nm following excitation at 488 nm. […] These fluorescent objects can be quantified and provide a measure of the phospho IGF1R levels in cells. […]

T1 sequence (P08069 31-1367): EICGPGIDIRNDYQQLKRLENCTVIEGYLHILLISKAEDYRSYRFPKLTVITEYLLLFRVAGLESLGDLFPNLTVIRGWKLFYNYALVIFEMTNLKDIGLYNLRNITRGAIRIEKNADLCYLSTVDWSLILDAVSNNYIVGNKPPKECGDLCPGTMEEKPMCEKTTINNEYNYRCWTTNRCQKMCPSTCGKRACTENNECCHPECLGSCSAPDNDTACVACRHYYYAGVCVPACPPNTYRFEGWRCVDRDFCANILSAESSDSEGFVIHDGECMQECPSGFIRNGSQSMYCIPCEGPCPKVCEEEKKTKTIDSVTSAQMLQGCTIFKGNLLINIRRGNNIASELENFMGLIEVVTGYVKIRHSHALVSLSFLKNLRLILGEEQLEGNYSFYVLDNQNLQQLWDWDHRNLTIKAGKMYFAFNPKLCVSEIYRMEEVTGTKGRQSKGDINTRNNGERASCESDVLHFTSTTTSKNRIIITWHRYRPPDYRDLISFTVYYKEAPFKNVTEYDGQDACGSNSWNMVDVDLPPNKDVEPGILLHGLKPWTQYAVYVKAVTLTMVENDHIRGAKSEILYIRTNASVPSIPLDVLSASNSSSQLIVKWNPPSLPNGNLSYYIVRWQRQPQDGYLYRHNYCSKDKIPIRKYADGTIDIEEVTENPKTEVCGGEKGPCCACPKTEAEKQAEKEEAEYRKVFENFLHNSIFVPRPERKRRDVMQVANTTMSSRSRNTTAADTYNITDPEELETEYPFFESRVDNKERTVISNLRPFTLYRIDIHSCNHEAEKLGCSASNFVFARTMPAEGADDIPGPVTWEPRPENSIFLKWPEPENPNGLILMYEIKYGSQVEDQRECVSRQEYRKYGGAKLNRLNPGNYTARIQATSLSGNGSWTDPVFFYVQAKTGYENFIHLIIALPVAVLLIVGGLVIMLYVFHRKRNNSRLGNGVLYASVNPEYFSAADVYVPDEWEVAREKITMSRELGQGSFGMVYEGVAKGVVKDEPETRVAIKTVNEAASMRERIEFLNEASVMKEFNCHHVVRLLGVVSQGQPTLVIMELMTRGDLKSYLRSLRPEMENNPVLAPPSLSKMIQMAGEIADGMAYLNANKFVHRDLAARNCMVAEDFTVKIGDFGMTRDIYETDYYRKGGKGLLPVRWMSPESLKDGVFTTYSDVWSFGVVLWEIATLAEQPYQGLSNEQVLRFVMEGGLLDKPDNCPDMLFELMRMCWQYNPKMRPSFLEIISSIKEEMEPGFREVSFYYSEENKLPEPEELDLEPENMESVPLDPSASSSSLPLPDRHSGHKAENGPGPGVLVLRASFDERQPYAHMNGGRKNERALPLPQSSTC

IC50: 4 nM
Structure (SMILES): COc1cc(N2CC(C)NC(C)C2)ccc1Nc1ncc(Cl)c(-c2cnc3ccccn23)n1 (stereo not shown) [5-chloro-N-[4-(3,5-dimethylpiperazin-1-yl)-2-methoxy-phenyl]-4-imidazo[1,2-a]pyridin-3-yl-pyrimidin-2-amine]
